Read-outs that look alike come from different tables or passages of the source.
How the values were obtained:
[1] = biological target: T1, hMOR-1 (Homo sapiens, UniProt P35372); test: Opioid receptor competitive binding assay, MOR (3H-DAMGO); settings: Ki MOR, 3H-DAMGO, hMOR-1 stably transfected into CHO cells
T1 construct: purchased Amersham Biosciences; host or cells: stably transfected CHO cells (membrane preparation)
Experimental: (§1) For selected compounds, Ki for MOR, DOR, and KOR were determined according to the following procedure: Recombinant hMOR-1 membrane preps from stably transfected CHO cells and recombinant hDOR-1 membrane preps from stably transfected HEK-293 cells were purchased from Amersham Biosciences. Guinea pig cerebellum preparations were used for KOR assays.
(§2) Each microassay from an assay plate was filtered through an individual well of a Packard GF/B 96-well filter plate (glass fiber filter) to collect the membranes. Each well was washed twice with 200 μL of ice cold wash buffer (50 mM Tris, pH 7.4). The filter plate was allowed to dry overnight, the back was sealed, and Packard Bioscience Microscint PS scintillation fluid (75 μL) was added to each well, which was then counted for ^3H for 2 minutes using a Packard Bioscience TopCount scintillation counter plate reader.
(§3) Each compound was assayed at 8 concentrations, using half-log serial dilutions. Each concentration was tested in triplicate, and the ^3H cpm were averaged.
(§4) This concentration was determined experimentally by scintillation counting an aliquot of the radioligand stock solution used in the assay.
(§5) Kd=the binding constant for the radioligand.
(§6) This triplicate experiment was repeated three times for the MOR and twice for the DOR and the KOR.

[2] = biological target: T2, hDOR-1 (Homo sapiens, UniProt P41143); test: Opioid receptor competitive binding assay, DOR
T2 construct: purchased Amersham Biosciences; host or cells: stably transfected HEK-293 cells (membrane preparation)
Experimental: as §1, §2, §3, §4, §5, §6

[3] = biological target: T3, KOR (Cavia porcellus, UniProt P41144); test: Opioid receptor competitive binding assay, KOR (3H-U-69,593); design: species or system guinea pig; settings: for Ki KOR/Ki MOR: selectivity for MOR versus KOR
T3 construct: from tissue; host or cells: guinea pig cerebellum preparation
Experimental: as §1, §2, §3, §6

[4] = biological target: T1, hMOR-1; test: MOR GTP-γ-S assay (MOR activation); type: biochemical; settings: CHO membranes with hMOR-1; for % GTP-γ-S bound: Table 16, compound 10 μM, percentage of DAMGO induced GTP-γ-35S specific binding; for % GTP-γ-35S bound: Table 15, percentage of DAMGO induced GTP-g-35S specific binding
Experimental: MOR GTP-γ-S assay was run in the same 200 μL, 96 well format as the binding assay. Each microassay contained experimental compound, 0.04 nM GTP-γ-^35S, 9 μM GDP, and about 0.02 nM MOR (from stably transfected CHO cells), in assay buffer (50 mM Tris-HCl, 3 mM MgCl2, 0.2 mM EGTA, 100 mM NaCl, pH 7.4). The assays were incubated for two to three hours at room temperature, then filtered onto a filter plate. The plate was dried; scintillation fluid was added, and the wells were counted for ^35S. Blank assays were run to determine non-specific binding. […] The results were averaged; the non-specific counts were subtracted, and the resulting value was expressed as a percent of the value obtained for DAMGO. The error reported is two standard deviations from the mean of the quadruplicate experiment. The values were compared using one way Anova with Tukey's post-hoc analysis.

[5] = Table 4, errors 95% confidence interval
[6] = Ki DOR, Table 7, 3H-diprenorphine, hDOR-1 stably transfected into HEK-293 cells, errors two standard deviations
[7] = Table 13, selectivity for MOR versus DOR (footnote: 3H-DPDPE, hDOR-1)
[8] = Ki KOR, Table 10, 3H-U-69,593, guinea pig cerebellum preparation, errors two standard deviations
[9] = Table 3, errors 95% confidence interval
[10] = Ki DOR, Table 6, footnote:, hDOR-1 stably transfected into HEK-293 cells, errors two standard deviations
[11] = Table 12, selectivity for MOR versus DOR (3H-DPDPE, hDOR-1)
[12] = Ki KOR, Table 9, 3H-U-69,593, guinea pig cerebellum preps, errors two standard deviations

Structure (SMILES) | Ki ([1]; Table 5) | Ki ([2]; read-out: Ki DOR) | Ki ([3]; read-out: Ki KOR) | % GTP-γ-S bound [4] | Ki [1, 5] | Ki [2, 6] | Ki DOR/Ki MOR [2, 7] | Ki [3, 8] | Ki KOR/Ki MOR ([3]; Table 13) | % GTP-γ-35S bound ([4]; compound 10 mM (footnote)) | also measured
NC(=O)C(Cc1ccccc1)NC(=O)C(Cc1ccccc1)C(O)/C=C/C(O)CC(N)Cc1ccc(O)cc1 (single isomer, unassigned) [(R, R, S, S)-43, 7-(1-Carbamoyl-2-phenyl-ethylcarbamoyl)-3,6-dihydroxy-1-(4-hydroxy-benzyl)-8-phenyl-oct-4-enyl-ammonium] | 38 ± 13 nM | 1200 ± 100 nM | 880 ± 550 nM | 30 ± 6% |  |  |  |  |  |  | 
NC(=O)C(Cc1ccccc1)NC(=O)C(Cc1ccccc1)C(O)/C=C/C(O)CC(N)Cc1ccc(O)cc1 (single isomer, unassigned) [(R, S, R, R)-43, 7-(1-Carbamoyl-2-phenyl-ethylcarbamoyl)-3,6-dihydroxy-1-(4-hydroxy-benzyl)-8-phenyl-oct-4-enyl-ammonium] | 20 ± 3 nM | 2500 ± 300 nM | 270 ± 30 nM | 68 ± 10% |  |  |  |  |  |  | 
NC(=O)C(Cc1ccccc1)NC(=O)C(Cc1ccccc1)C(O)/C=C/C(O)CC(N)Cc1ccc(O)cc1 (single isomer, unassigned) [(S, R, R, S)-43, 7-(1-Carbamoyl-2-phenyl-ethylcarbamoyl)-3,6-dihydroxy-1-(4-hydroxy-benzyl)-8-phenyl-oct-4-enyl-ammonium] | 28 ± 6 nM | 2500 ± 3000 nM | 1200 ± 600 nM | 48 ± 8% |  |  |  |  |  |  | 
NC(=O)C(Cc1ccccc1)NC(=O)C(Cc1ccccc1)C(O)/C=C/C(O)CC(N)Cc1ccc(O)cc1 (single isomer, unassigned) [(S, R, S, R)-43, 7-(1-Carbamoyl-2-phenyl-ethylcarbamoyl)-3,6-dihydroxy-1-(4-hydroxy-benzyl)-8-phenyl-oct-4-enyl-ammonium] | 32 ± 6 nM | 740 ± 40 nM | 290 ± 100 nM | 37 ± 7% |  |  |  |  |  |  | 
NC(=O)C(Cc1ccccc1)NC(=O)C(Cc1ccccc1)C(O)/C=C/C(O)CC(N)Cc1ccc(O)cc1 (single isomer, unassigned) [(S, R, S, S)-43, 7-(1-Carbamoyl-2-phenyl-ethylcarbamoyl)-3,6-dihydroxy-1-(4-hydroxy-benzyl)-8-phenyl-oct-4-enyl-ammonium] | 42 ± 5 nM | 2500 ± 300 nM | 3100 ± 2600 nM | 57 ± 12% |  |  |  |  |  |  | 
NC(=O)C(Cc1ccccc1)NC(=O)C(Cc1ccccc1)C(O)/C=C/C(O)CC(N)Cc1ccc(O)cc1 (single isomer, unassigned) [(S, S, R, S)-43, 7-(1-Carbamoyl-2-phenyl-ethylcarbamoyl)-3,6-dihydroxy-1-(4-hydroxy-benzyl)-8-phenyl-oct-4-enyl-ammonium] | 14 ± 1 nM | 1200 ± 100 nM | 450 ± 60 nM | 25 ± 5% |  |  |  |  |  |  | 
Cc1cc(O)cc(C)c1CC(N)C(O)C/C=C/C(O)C(Cc1ccccc1)C(=O)NC(Cc1ccccc1)C(N)=O (single isomer, unassigned) [(S,R,R,R)-25, 7-(1-Carbamoyl-2-phenyl-ethylcarbamoyl)-2,6-dihydroxy-1-(4-hydroxy-2,6-dimethyl-benzyl)-8-phenyl-oct-4-enyl-ammonium] |  |  |  |  | 1.6 ± 0.9 nM | 85 ± 13 nM | 53 | 25 ± 14 nM | 16 | 43 ± 9% | 
Cc1cc(O)cc(C)c1CC(N)C(O)C/C=C/C(O)C(Cc1ccccc1)C(=O)NCCc1ccccc1 (single isomer, unassigned) [(S,R,R,R)-26, 2,6-Dihydroxy-1-(4-hydroxy-2,6-dimethyl-benzyl)-7-phenethylcarbamoyl-8-phenyl-oct-4-enyl-ammonium] |  |  |  |  | 0.72 ± 0.26 nM | 66 ± 1 nM | 91 | 69 ± 20 nM | 96 | 27 ± 9% | 
Cc1cc(O)cc(C)c1CC(N)C(O)C/C=C/C(O)C(Cc1ccccc1)C(=O)NC(Cc1ccccc1)C(N)=O (single isomer, unassigned) [(S,R,S,R)-25, 7-(1-Carbamoyl-2-phenyl-ethylcarbamoyl)-2,6-dihydroxy-1-(4-hydroxy-2,6-dimethyl-benzyl)-8-phenyl-oct-4-enyl-ammonium] |  |  |  |  | 1.2 ± 0.3 nM | 46 ± 16 nM | 38 | 15 ± 8 nM | 13 | 14 ± 3% | 
Cc1cc(O)cc(C)c1CC(N)C(O)C/C=C/C(O)C(Cc1ccccc1)C(=O)NCCc1ccccc1 (single isomer, unassigned) [(S,R,S,R)-26, 2,6-Dihydroxy-1-(4-hydroxy-2,6-dimethyl-benzyl)-7-phenethylcarbamoyl-8-phenyl-oct-4-enyl-ammonium] |  |  |  |  | 0.24 ± 0.05 nM | 123 ± 8 nM | 510 | 51 ± 1 nM | 210 | 49 ± 4% | 
Cc1cc(O)cc(C)c1CC(N)C(O)C/C=C/C(O)C(Cc1ccccc1)C(=O)NC(Cc1ccccc1)C(N)=O (single isomer, unassigned) [(S,S,R,R)-25, 7-(1-Carbamoyl-2-phenyl-ethylcarbamoyl)-2,6-dihydroxy-1-(4-hydroxy-2,6-dimethyl-benzyl)-8-phenyl-oct-4-enyl-ammonium] |  |  |  |  | 0.42 ± 0.09 nM | 36 ± 6 nM | 86 | 21 ± 4 nM | 49 | 75 ± 11% | 
Cc1cc(O)cc(C)c1CC(N)C(O)C/C=C/C(O)C(Cc1ccccc1)C(=O)NCCc1ccccc1 (single isomer, unassigned) [(S,S,R,R)-26, 2,6-Dihydroxy-1-(4-hydroxy-2,6-dimethyl-benzyl)-7-phenethylcarbamoyl-8-phenyl-oct-4-enyl-ammonium] |  |  |  |  | 0.37 ± 0.13 nM | 26 ± 3 nM | 70 | 64 ± 14 nM | 170 | 48 ± 9% | 
NC(Cc1ccc(O)cc1)C(O)C/C=C/C(O)C(Cc1ccccc1)C(=O)NC(CO)Cc1ccccc1 (single isomer, unassigned) [(S,S,S,R)-11, (E)-8-Amino-2-benzyl-3,7-dihydroxy-9-(4-hydroxy-phenyl)-non-4-enoic acid (1-hydroxymethyl-2-phenyl-ethyl)-amide] |  |  |  |  |  |  |  |  |  |  | Ki [1, 9]: 10 ± 2 nM; Ki [2, 10]: 1100 ± 100 nM; Ki DOR/Ki MOR [2, 11]: 110; Ki [3, 12]: 6000 ± 700 nM; Ki KOR/Ki MOR ([3]; Table 12): 600
C=CC(O)C(Cc1ccccc1)NC(=O)C(Cc1ccccc1)C(O)/C=C/CC(O)C(N)Cc1ccc(O)cc1 (single isomer, unassigned) [(S,S,S,R)-12, (E)-8-Amino-2-benzyl-3,7-dihydroxy-9-(4-hydroxy-phenyl)-non-4-enoic acid (1-benzyl-2-hydroxy-but-3-enyl)-amide] |  |  |  |  |  |  |  |  |  |  | Ki [1, 9]: 20 ± 1 nM; Ki [2, 10]: 680 ± 40 nM; Ki DOR/Ki MOR [2, 11]: 34; Ki [3, 12]: 1050 ± 10 nM; Ki KOR/Ki MOR ([3]; Table 12): 53
NC(=O)C(Cc1ccccc1)OC(=O)C(Cc1ccccc1)C(O)/C=C/CC(O)C(N)Cc1ccc(O)cc1 [(S,S,S,R)-13, (E)-8-Amino-2-benzyl-3,7-dihydroxy-9-(4-hydroxy-phenyl)-non-4-enoic acid1-carbamoyl-2-phenyl-ethyl ester] |  | 910 ± 250 nM | 6000 ± 2100 nM |  |  |  |  |  |  |  | Ki [1, 9]: 37 ± 8 nM
Cc1cc(O)cc(C)c1CC(N)C(O)C/C=C/C(O)C(Cc1ccccc1)C(=O)NC(CN)Cc1ccccc1 [(S,S,S,R)-28] |  |  |  |  | 0.45 ± 0.05 nM | 21 ± 4 nM |  |  |  | 47 ± 5% | 
NC(=O)[C@H](Cc1ccccc1)NC(=O)[C@H](Cc1ccccc1)NC(=O)[C@H]1CCCN1C(=O)[C@@H](N)Cc1ccc(O)cc1 [Compound 1, Endomorphin-2, reference compound] | 1 ± 0.1 nM |  |  | 100 ± 6% | 0.69 ± 0.18 nM |  |  |  |  |  | Ki [1, 9]: 1.2 ± 0.1 nM; % GTP-γ-35S bound ([4]; compound 10 μM (footnote)): 100 ± 6%
